These results are taken from US5788969A, “Peptides for inducing cytotoxic T lymphocyte responses hepatitis B virus” (priority 1995, dated 1998).

In data set [1] the test system is allogeneic target cells partially matched at HLA class I. In words: HLA restriction of peptide specific CTL using allogeneic target cells partially matched at HLA class I. The data set is classed as cell-based, human. The settings on record: clone B3 (patient A-1) and polyclonal CTL line (patient A-3). The procedure: Using patient A-1's HBsAg329-348 specific cell line four clones were derived from cells plated at 1 cell per well (clone B13, B16, B17) or 0.3 cells per well (clone B3). Clone B3 was tested against a panel of allogeneic target cells partially matched with the effectors at the level of HLA class I alleles. […] Since the HLA-A2 subtypes of the patients were not determined, it is not known if the CTL response to the peptides is restricted only by the HLA-A2.1 allele or whether it extends to other HLA-A2 subtypes as well.

For data set [2], the system named is PBMC from patients and normal donors. Particulars: patients A-1 and A-3, after 2-3 weeks of stimulation.

Regarding ASARFSWLSLLVPFVQWFVG [HBsAg329-348], the “HLA restriction of cytolytic activity of peptide specific CTL” value in data set [1] was “HLA-A2 restricted”. The “cytotoxic response of peptide stimulated PBMC against JY cells prepulsed with the peptide” value in data set [2] is on record as “strong cytotoxic response”.
